Test results from patent publication US12152038B2, “Vasopressin receptor antagonists and products and methods related thereto” (Neumora Therapeutics, Inc., priority 2017, dated 2024).

target: T1, human Arginine Vasopressin Receptor V2 (AVPR2) (Homo sapiens, UniProt P30518); experiment: Vasopressin V2 receptor antagonist assay (TR-FRET cAMP, 1321N1 cells); type: cell-based
T1 construct: host or cells: 1321N1 (cAMPZen V2 assay ready frozen cells)
Protocol: The purpose of the assay was to determine the inhibitory effect of synthesized compounds on the Vasopressin receptor 2. The assay was performed in commercially available 1321N1 cells expressing the human Arginine Vasopressin Receptor V2 (AVPR2) (Perkin Elmer #ES-363-CF). Arginine Vasopressin (AVP) evokes an increase in intracellular cAMP in these cells which is measured in a TR-FRET assay using a Europium cAMP tracer and ULight labelled antibody reagents contained in a LANCE Ultra cAMP kit (Perkin Elmer #TRF0263). Increases in cAMP in the assay result in a reduction in TR-FRET as the cAMP produced by the stimulated cells competes with the Eu-cAMP tracer for binding sites on the ULight labelled antibody. Test compounds were assessed for their ability to affect the magnitude of the response to AVP, with antagonists showing a concentration-dependent decrease in the AVP-mediated reduction in TR-FRET signal.
cAMPZen V2 assay ready cells were thawed at 37° C. and resuspended directly from frozen in 9 ml growth medium consisting of DMEM supplemented with 10% v/v fetal bovine serum, 1× non-essential amino acids, and 1 mM sodium pyruvate. Cells were spun at 1000 rpm for 3 minutes and the supernatant was carefully removed and discarded. The pellet was resuspended in 5 ml stimulation buffer and the cell density determined using the Vi-Cell automated cell counter. The cell suspension was diluted to a 0.2×10^6/ml suspension ready for plating. To all wells of a white 384-well Optiplate (Perkin Elmer #6007299) 5 μL of cells in stimulation buffer were dispensed (1,000 cells per well). Stimulation buffer consisted of HBSS (+Ca/+Mg) supplemented with 5 mM HEPES, 0.1% BSA stabiliser and 0.5 mM IBMX.
At the start of each assay day the potency of AVP was assessed and an EC80 concentration determined for subsequent compound profiling. Assays were performed by first an addition of 2.5 μl of control or test compound at 4× final concentration in stimulation buffer followed by 2.5 μl of AVP at 4× final concentration in stimulation buffer. After a 1 hour reaction, detection reagents were added by first an addition of 5 μl EU-cAMP tracer, followed by 5 μl ULight-anti-cAMP both diluted as per the manufacturer's instructions. After a one hour incubation, plates were ready to be read (signals then remained stable for up to 24 hours). Changes in time resolved fluorescence were monitored with excitation via a laser (337 nm) measuring both 615 nm and 665 nm emission wavelengths. […] For compound profiling, test compounds were dispensed by the Labcyte Echo (10-point curve, 1:3 dilutions) in a target 0.1 μl volume then diluted 750-fold in stimulation buffer containing 3% DMSO prior to addition to the cells. At the end of the incubation period, 2.5 μl of AVP in stimulation buffer was added at the previously determined EC80 concentration.
In-plate controls for the assay included a Tolvaptan concentration-response curve as the reference V2 antagonist and an AVP concentration-response curve to confirm the reproducibility of the EC80 used for the compound challenge.

T1 sequence (P30518 whole entry): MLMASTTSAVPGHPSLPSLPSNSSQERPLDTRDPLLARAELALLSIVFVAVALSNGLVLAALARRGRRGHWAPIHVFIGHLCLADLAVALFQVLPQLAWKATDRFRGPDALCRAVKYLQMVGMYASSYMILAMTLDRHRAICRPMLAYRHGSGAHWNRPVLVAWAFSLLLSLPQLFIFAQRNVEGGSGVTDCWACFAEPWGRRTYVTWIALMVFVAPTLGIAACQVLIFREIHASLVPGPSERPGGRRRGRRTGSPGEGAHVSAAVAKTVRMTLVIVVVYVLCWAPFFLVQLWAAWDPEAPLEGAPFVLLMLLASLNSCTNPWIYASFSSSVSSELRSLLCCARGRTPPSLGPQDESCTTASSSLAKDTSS

| IC50 [nM] | SMILES |
| --- | --- |
| ≥ 1000 | O=C(N1CC2(C1)CN(c1ccc(F)cn1)C2)N1CCC(O)c2cc(Cl)ccc21 (single isomer, unassigned) [13-1-A] |
| 100 to 500 | CC1COc2cc(F)ccc2N1C(=O)N1CC2(C1)CN(c1ccc(F)cn1)C2 (single isomer, unassigned) [12-1-B] |
| < 100 | COc1ccnc(N2CC3(CN(C(=O)N4c5ccc(Cl)cc5OCC4C)C3)C2)c1 (single isomer, unassigned) [20-8-B] |
| ≥ 1000 | O=C(N1CC2(C1)CN(c1cnccn1)C2)N1CCC(O)c2cc(Cl)ccc21 (centres unmarked) [13-3] |
| ≥ 1000 | O=C(N1CC2(C1)CN(c1cccnn1)C2)N1CCOc2cc(Cl)c(F)cc21 [1-81] |
| ≥ 1000 | CC1COc2cc(F)ccc2N1C(=O)N1CC2(C1)CN(c1ncccn1)C2 (centres unmarked) [18-1, (7-fluoro-3-methyl-2,3-dihydro-4H-benzo[b][1,4]oxazin-4-yl)(6-(pyrimidin-2-yl)-2,6-diazaspiro[3.3]heptan-2-yl)methanone] |
| ≥ 1000 | O=C(N1CC2(C1)CN(c1ccccn1)C2)N1CCC(O)c2cc(Cl)ccc21 (single isomer, unassigned) [13-2-A] |
| ≥ 1000 | CC1CN(C(=O)N2CC3(C2)CN(c2ccc(F)cn2)C3)c2ccc(Cl)cc2O1 (centres unmarked) [9-3] |
| < 100 | CC1COc2cc(F)c(F)cc2N1C(=O)N1CC2(C1)CN(c1ccc(F)cn1)C2 (centres unmarked) [19-5] |
| < 100 | CC1COc2cc(F)c(F)cc2N1C(=O)N1CC2(C1)CN(c1ccc(F)cn1)C2 (single isomer, unassigned) [19-5-B] |
| < 100 | CC1COc2cc(Cl)ccc2N1C(=O)N1CC2(C1)CN(c1cc(C#N)ccn1)C2 (centres unmarked) [20-6] |
| ≥ 1000 | CC1COc2cc(Cl)ccc2N1C(=O)N1CC2(C1)CN(c1cccnc1)C2 (single isomer, unassigned) [20-1-B] |
| ≥ 1000 | O=C(N1CC2(C1)CN(c1ccc(F)cn1)C2)N1CCc2cc(Cl)ccc21 [8-11] |
| 100 to 500 | COc1ccnc(N2CC3(CN(C(=O)N4c5ccc(Cl)cc5OCC4C)C3)C2)n1 (single isomer, unassigned) [20-9-B] |
| ≥ 1000 | O=C(N1CC2(C1)CN(c1ccccn1)C2)N1CCOCc2cc(Cl)ccc21 [8-12] |
| < 100 | Cc1ccnc(N2CC3(CN(C(=O)N4c5ccc(Cl)cc5OCC4C)C3)C2)n1 (single isomer, unassigned) [20-12-B] |
| 500 to 1000 | CC1COc2cc(F)ccc2N1C(=O)N1CC2(C1)CN(c1noc3ccccc13)C2 (single isomer, unassigned) [4-3-B] |
| 100 to 500 | CC1COc2cc(F)ccc2N1C(=O)N1CC2(C1)CN(c1cc(C#N)ccn1)C2 (single isomer, unassigned) [20-3-B] |
| 100 to 500 | CC1COc2cc(Cl)ccc2N1C(=O)N1CC2(C1)CN(c1noc3cccnc13)C2 (centres unmarked) [18-3] |
| ≥ 1000 | Cc1cccnc1N1CC2(CN(C(=O)N3CCOc4cc(Cl)ccc43)C2)C1 [1-5] |
| ≥ 1000 | CC1COc2cc(F)c(F)cc2N1C(=O)N1CC2(C1)CN(c1cccnn1)C2 (centres unmarked) [19-3] |
| ≥ 1000 | COc1ccc2c(c1)OCCN2C(=O)N1CC2(C1)CN(c1ccc(F)cn1)C2 [9-2] |
| ≥ 1000 | CC1COc2cc(Cl)c(F)cc2N1C(=O)N1CC2(C1)CN(c1cccnn1)C2 (single isomer, unassigned) [19-4-A] |
| < 100 | Cc1cncc(N2CC3(CN(C(=O)N4c5ccc(F)cc5OCC4C)C3)C2)n1 (single isomer, unassigned) [20-2-B] |
| ≥ 1000 | CC1COc2cc(F)c(F)cc2N1C(=O)N1CC2(C1)CN(c1ncccn1)C2 (centres unmarked) [19-1, (6,7-difluoro-3-methyl-2,3-dihydro-4H-benzo[b][1,4]oxazin-4-yl)(6-(pyrimidin-2-yl)-2,6-diazaspiro[3.3]heptan-2-yl)methanone] |
| ≥ 1000 | CC1COc2cc(F)c(F)cc2N1C(=O)N1CC2(C1)CN(c1cccnn1)C2 (single isomer, unassigned) [19-3-B] |
| ≥ 1000 | O=C(N1CC2(C1)CN(c1ccccn1)C2)N1CCC(O)c2cc(Cl)ccc21 (single isomer, unassigned) [13-2-B] |

| IC50 [nM] | SMILES |
| --- | --- |
| 500 to 1000 | Cc1nccnc1N1CC2(CN(C(=O)N3c4ccc(Cl)cc4OCC3C)C2)C1 (centres unmarked) [20-10] |
| < 100 | CCC1COc2cc(Cl)ccc2N1C(=O)N1CC2(C1)CN(c1ccccn1)C2 (centres unmarked) [11-1, (7-chloro-3-ethyl-2,3-dihydro-4H-benzo[b][1,4]oxazin-4-yl)(6-(pyridin-2-yl)-2,6-diazaspiro[3.3]heptan-2-yl)methanone] |
| ≥ 1000 | CC1CN(C(=O)N2CC3(C2)CN(c2ccc(F)cn2)C3)c2ccc(Cl)cc2O1 (single isomer, unassigned) [9-3-A] |
| ≥ 1000 | O=C(N1CC2(C1)CN(c1ncccn1)C2)N1CCOc2cc(Cl)ccc21 [1-4] |
| ≥ 1000 | CC1COc2cc(Cl)ccc2N1C(=O)N1CC2(C1)CN(c1cccnn1)C2 (single isomer, unassigned) [9-1-B] |
| < 100 | CC1Cc2cc(Cl)ccc2N1C(=O)N1CC2(C1)CN(c1ccc(F)cn1)C2 (centres unmarked) [8-16] |
| ≥ 1000 | CC1COc2cc(Cl)ccc2N1C(=O)N1CC2(C1)CN(c1cccnn1)C2 (centres unmarked) [9-1, (7-chloro-3-methyl-2,3-dihydro-4H-benzo[b][1,4]oxazin-4-yl)(6-(pyridazin-3-yl)-2,6-diazaspiro[3.3]heptan-2-yl)methanone] |
| ≥ 1000 | CC1COc2cc(F)c(F)cc2N1C(=O)N1CC2(C1)CN(c1ncccn1)C2 (single isomer, unassigned) [19-1-B] |
| ≥ 1000 | CC1COc2cc(Cl)c(F)cc2N1C(=O)N1CC2(C1)CN(c1ncccn1)C2 (centres unmarked) [19-2] |
| 100 to 500 | Cc1nccnc1N1CC2(CN(C(=O)N3c4ccc(Cl)cc4OCC3C)C2)C1 (single isomer, unassigned) [20-10-A] |
| ≥ 1000 | COc1ccnc(N2CC3(CN(C(=O)N4CCOc5cc(Cl)ccc54)C3)C2)c1 [1-15] |
| ≥ 1000 | O=C(N1CC2(C1)CN(c1cc(F)ccn1)C2)N1CCc2cc(Cl)ccc21 [1-79] |
| ≥ 1000 | CC1COc2cc(F)ccc2N1C(=O)N1CC2(C1)CN(c1noc3ccccc13)C2 (centres unmarked) [4-3] |
| ≥ 1000 | O=C(N1CC2(C1)CN(c1ccc(F)cn1)C2)N1CCC(F)c2cc(Cl)ccc21 (centres unmarked) [14-1, (6-chloro-4-fluoro-3,4-dihydroquinolin-1(2H)-yl)(6-(5-fluoropyridin-2-yl)-2,6-diazaspiro[3.3]heptan-2-yl)methanone] |
| ≥ 1000 | O=C(N1CC2(C1)CN(c1ccccn1)C2)N1CCc2cc(Cl)ccc21 [1-77] |
| 100 to 500 | Cc1cnc(N2CC3(CN(C(=O)N4c5ccc(Cl)cc5OCC4C)C3)C2)nc1 (centres unmarked) [20-13] |
| ≥ 1000 | O=C(N1CC2(C1)CN(c1ncccc1F)C2)N1CCc2cc(Cl)ccc21 [1-76] |
| ≥ 1000 | Cc1nc(N2CC3(CN(C(=O)N4CCOc5cc(Cl)ccc54)C3)C2)ncc1F [6-1, (7-chloro-2,3-dihydro-4H-benzo[b][1,4]oxazin-4-yl)(6-(5-fluoro-4-methylpyrimidin-2-yl)-2,6-diazaspiro[3.3]heptan-2-yl)methanone] |
| < 100 | Cc1cncc(N2CC3(CN(C(=O)N4c5ccc(F)cc5OCC4C)C3)C2)n1 (centres unmarked) [20-2] |
| 100 to 500 | Cc1nc(N2CC3(CN(C(=O)N4c5ccc(Cl)cc5OCC4C)C3)C2)ncc1F (centres unmarked) [20-7] |
| < 100 | Cc1ccnc(N2CC3(CN(C(=O)N4c5ccc(F)cc5OCC4C)C3)C2)c1 (single isomer, unassigned) [20-4-B] |
| ≥ 1000 | CC1COc2cc(Cl)ccc2N1C(=O)N1CC2(C1)CN(c1cccnc1)C2 (centres unmarked) [20-1, (7-chloro-3-methyl-2,3-dihydro-4H-benzo[b][1,4]oxazin-4-yl)(6-(pyridin-3-yl)-2,6-diazaspiro[3.3]heptan-2-yl)methanone] |
| ≥ 1000 | O=C(N1CC2(C1)CN(c1ccc(F)cn1)C2)N1CCOc2cc(Cl)ccc21 [9-7] |
| < 100 | Cc1nc(N2CC3(CN(C(=O)N4c5ccc(Cl)cc5OCC4C)C3)C2)ncc1F (single isomer, unassigned) [20-7-B] |
| ≥ 1000 | O=C(N1CC2(C1)CN(c1noc3ccccc13)C2)N1CCOc2cc(Cl)ccc21 [4-1, (6-(benzo[d]isoxazol-3-yl)-2,6-diazaspiro[3.3]heptan-2-yl)(7-chloro-2,3-dihydro-4H-benzo[b][1,4]oxazin-4-yl)methanone] |
| ≥ 1000 | CC1COc2cc(Cl)c(F)cc2N1C(=O)N1CC2(C1)CN(c1cccnc1)C2 (centres unmarked) [19-6] |
